This is an account of results in US20250206761A1, “HALOINDOLE MACROCYCLIC COMPOUNDS FOR THE TREATMENT OF CANCER” (Hoffmann-La Roche Inc., priority 2022, published 2025).

Experiment [1] addresses T1, KRAS G12C-BRAF complex (Homo sapiens (Human), UniProt P01116+P62937, G12C). Description: KRAS G12C-BRAF NanoBit assay. It is filed as cell-based. The note with it: HEK293 cells, 3 hours of incubation. On the procedure:
This assay is to measure the ability of tested compounds in disruption of the KRAS G12C-BRAF complex at the cellular level, we established the NanoBit cellular assay in mammalian HEK293 (ATCC) cells.
HEK293 cells were grown and maintained using DMEM medium (Thermo Fisher Scientific) with 10% fetal bovine serum and 1% penicillin/streptomycin. Both KRAS G12C and BRAF RBD were cloned into the NanoBit vectors ([…] vectors system, Promega) with the orientations SnmBit-KRAS G12C and BRAF RBD-LgBit, respectively, and co-transfected into HEK293 cells. Cells were then selected with 100 μg/mL Hygromycin B (10687010, Thermo Fisher) and Blasticidin (5 μg/mL) for 4 weeks to get the stable cell pool.
On the day of the assay, 75 nL of compound solution was presented in a 384-well assay plate as a 16-point 3-fold dilution starting from a final concentration of 30 μM in DMSO. Then cells were seeded at 10,000 cells/25 μL/well in a 384-well plate. After 3 hours of incubation, 6 μL of volume of Nano-Glo® Live Cell Substrate (Promega) was added into each well. Monitor luminescence using ultra384 model in Envision at 20 minutes. Compounds that facilitate disruption of the KRAS G12C-BRAF RBD complex were identified as those eliciting a decrease of luminescence relative to DMSO control wells.

Another experiment deals with SW620 (ATCC-CCL-227). Description: Cell viability assay, G12V (SW620). The note with it: Homo sapiens, SW-620; KRAS cell viability, SW620, 72 hrs, Cell Counting Kit-8. In kind it is cell-based, human. The gist of the method: (§1)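 72-hr compound treatment, 0.5% DMSO final; NCI-H358 seeded 5,000 cells/well, AGS and SW620 2,000 cells/well. Endpoint: CCK-8, 2-hr development, OD450 minus OD650.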
(In general: Tetrazolium dyes change colour on reduction, which living cells bring about.)

For experiment [2], the system named is AGS (ATCC-CRL-1739) cells. Briefly: Cell viability assay, G12D (AGS). In kind it is cell-based, human. To be noted: Homo sapiens, KRAS cell viability, 72 hrs, Cell Counting Kit-8. The gist of the method: as §1
Experiment [3] relates to NCI-H358 (ATCC-CRL5807) cells. Briefly: Cell viability assay, G12C (NCI-H358). It is filed as cell-based, human. To be noted: Homo sapiens; KRAS cell viability, NCI-H358, 72 hrs, Cell Counting Kit-8. An outline of the steps:
as §1

Experiment [4] concerns phosphorylation of ERK, KRAS G12D in AGS cells. Description: pERK inhibition assay, KRAS G12D. It is filed as cell-based, human. To be noted: Homo sapiens, 4 hours. Here is the method: This assay is to measure the ability of test compounds in inhibiting the phosphorylation of ERK, the downstream signaling of KRAS G12C in NCJ-H358 cells, KRAS G12D in AGS cells, and KRAS G12V in SW620. NCJ-H358 (ATCC-CRL5807) cells, AGS (ATCC-CRL-1739) cells, SW620 (ATCC-CCL-227) cells were all grown and maintained using RPMI-1640 medium (Thermo Fisher Scientific) with 10% fetal bovine serum and 1% penicillin/streptomycin. On the day prior to compound addition, cells were plated in tissue culture-treated 96 well plates (Corning-3699) at a density of 30,000 cell/well, 20,000 cell/well, 30,000 cell/well for NCJ-H358, AGS and SW620 respectively, and allowed for attachment overnight. Diluted compounds were then added in a final concentration of 0.5% DMSO. After 4 hours of incubation, the medium was removed, 100 μL of 4% formaldehyde was added, and the assay plates were incubated at room temperature for 20 minutes. The plates were then washed once with phosphate buffered saline (PBS), and permeabilized with 100 μL of chilled methanol for 10 minutes. Non-specific antibody binding to the plates was blocked using 50 μL 1×BSA blocking buffer (Thermo-37520, 10-fold dilution by Phosphate-Buffered Saline Tween (PBST) for at least 1 hour at room temperature.
The amount of phosphor-ERK was determined using an antibody specific for phosphorylated form of ERK. Primary antibody (pERK, CST-4370, Cell Signaling Technology) was diluted 1:300 in blocking buffer, with 50 μL aliquoted to each well, and incubated overnight at 4′° C. Cells was washed five times for 5 minutes with PBST. Secondary antibody ([…] anti-rabbit IgG, CST-7074, Cell Signaling Technology) was diluted 1:1000 in blocking buffer, and 50 μL was added to each well and incubated 1-2 hrs at room temperature. Cells was washed 5 times for 5 minutes with PBST, 100 μL TMB ELISA substrate (abcam-ab171523) were added and gently shake for 20 minutes. 50 μL stop solution (abcam-ab171529) were added, and then read the signal (OD450) by EnVision.
IC50 was determined by fitting a 4-parameter sigmoidal concentration response model.

The test system of experiment [5] is phosphorylation of ERK, KRAS G12V in SW620. Description: pERK inhibition assay, KRAS G12V. In kind it is cell-based, human. To be noted: Homo sapiens, SW-620, SW620, 4 hours. The gist of the method: (§2)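 Read-out is OD450 from a TMB colorimetric cell ELISA using a phospho-ERK-specific antibody and HRP-linked secondary. Compounds were incubated with the cells for 4 hours at 0.5% DMSO before fixation and permeabilization. IC50 values come from 4-parameter concentration-response fitting.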

For experiment [6], the system named is phosphorylation of ERK, KRAS G12C in NCJ-H358 cells. Briefly: pERK inhibition assay, KRAS G12C. It is filed as cell-based, human. To be noted: Homo sapiens, 4 hours. The gist of the method:
as §2

Experiment [7] has as its target KRAS G12D binding to BRAF (Homo sapiens (Human), UniProt P01116+P62937, G12D). Description: KRAS-BRAF with CYPA (500 nM) interaction assay (TR-FRET), G12D. In kind it is biochemical.
The target in experiment [8] is T1, KRAS G12C-BRAF complex. Description: KRAS-BRAF with CYPA (500 nM) interaction assay (TR-FRET), G12C. In kind it is biochemical. In general terms: TR-FRET usually uses a lanthanide donor and a delayed reading to cut background.
The target in experiment [9] is KRAS G12V binding to BRAF (Homo sapiens (Human), UniProt P01116+P62937, G12V). Briefly: KRAS-BRAF with CYPA (500 nM) interaction assay (TR-FRET), G12V. In kind it is biochemical. An outline of the steps:
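A TR-FRET assay measured how compound, in the presence of CYPA, disrupts binding of GMPPNP-loaded 6His-KRAS G12V to BRAF. The buffer contained 25 mM HEPES PH=7.4, 0.002% Tween20, 0.1% BSA, 100 mM NaCl, 5 mM MgCl2 and 10 μM GMPPNP. Compounds ran as a 16-point 3-fold dilution series from 10 μM for 3 hours.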

T1 sequence (P01116-2 other isoform, or with tags, fused parts or gaps G12C): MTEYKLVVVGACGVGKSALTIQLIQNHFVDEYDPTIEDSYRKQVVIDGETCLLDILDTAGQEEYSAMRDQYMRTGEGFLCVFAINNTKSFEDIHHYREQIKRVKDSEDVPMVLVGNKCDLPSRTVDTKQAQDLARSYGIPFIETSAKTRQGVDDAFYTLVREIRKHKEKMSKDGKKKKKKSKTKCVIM
T1 sequence (P62937 whole entry): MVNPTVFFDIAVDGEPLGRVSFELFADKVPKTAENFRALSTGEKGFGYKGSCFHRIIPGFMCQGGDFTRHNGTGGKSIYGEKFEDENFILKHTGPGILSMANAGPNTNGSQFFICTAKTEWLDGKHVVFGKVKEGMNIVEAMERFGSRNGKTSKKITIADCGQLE
Chain of KRAS G12D binding to BRAF (P01116-2 other isoform, or with tags, fused parts or gaps G12D): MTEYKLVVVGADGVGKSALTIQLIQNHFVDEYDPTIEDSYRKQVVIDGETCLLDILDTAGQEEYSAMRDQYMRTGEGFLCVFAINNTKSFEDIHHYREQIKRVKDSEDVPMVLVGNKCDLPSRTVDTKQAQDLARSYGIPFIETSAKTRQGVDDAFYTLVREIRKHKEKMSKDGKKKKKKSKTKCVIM
Chain of KRAS G12D binding to BRAF (P62937 whole entry): as the sequence (P62937 whole entry) above
Chain of KRAS G12V binding to BRAF (P01116-2 other isoform, or with tags, fused parts or gaps G12V): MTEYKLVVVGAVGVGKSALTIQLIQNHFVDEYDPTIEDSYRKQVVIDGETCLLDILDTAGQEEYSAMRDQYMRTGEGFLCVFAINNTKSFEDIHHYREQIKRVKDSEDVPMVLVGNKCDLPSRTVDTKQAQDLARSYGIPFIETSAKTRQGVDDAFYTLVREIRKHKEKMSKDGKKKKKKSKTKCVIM
Chain of KRAS G12V binding to BRAF (P62937 whole entry): as the sequence (P62937 whole entry) above

Broadly, the IC50 is the midpoint of a concentration-inhibition curve. Take `CO[C@@H](C)c1ncc(N2CCN(C)CC2)cc1-c1c2c3cc(c(F)cc3n1CC(F)(F)F)-c1csc(n1)C[C@H](NC(=O)[C@@H](COC1CN(C(=O)[C@H](F)Cl)C1)C(C)C)C(=O)N1CCC[C@H](N1)C(=O)OCC(C)(C)C2` (atropisomer, axis not shown; (M)) [Example 13, (2R)-2-[[1-[(2R)-2-chloro-2-fluoro-acetyl]azetidin-3-yl]oxymethyl]-N-[(7S,13S)-24-fluoro-(20M)-20-[2-[(1S)-1-methoxyethyl]-5-(4-methylpiperazin-1-yl)-3-pyridyl]-17,17-dimethyl-8,14-dioxo-21-(2,2,2-trifluoroethyl)-15-oxa-4-thia-9,21,27,28-tetrazapentacyclo-[17.5.2.1^2,5.1^9,13.0^22,26]octacosa-1(25),2,5(28),19,22(26),23-hexaen-7-yl]-3-methyl-butanamide]: the concentration for half-maximal inhibition (IC50) on KRAS G12C-BRAF complex [1] came out at 0.027 µM; in the experiment with SW620 (ATCC-CCL-227), 0.023 µM; in experiment [2], 2.39 µM; in [3], 0.002 µM.

In the case of `CO[C@@H](C)c1ncc(N2CCN(C)CC2)cc1-c1c2c3cc(c(F)cc3n1CC(F)(F)F)-c1csc(n1)C[C@H](NC(=O)[C@H](COC1CN(C(=O)[C@H](F)Cl)C1)C(C)C)C(=O)N1CCC[C@H](N1)C(=O)OCC(C)(C)C2` (atropisomer, axis not shown; (M)) [Example 14, (2S)-2-[[1-[(2R)-2-chloro-2-fluoro-acetyl]azetidin-3-yl]oxymethyl]-N-[(7S,13S)-24-fluoro-(20M)-20-[2-[(1S)-1-methoxyethyl]-5-(4-methylpiperazin-1-yl)-3-pyridyl]-17,17-dimethyl-8,14-dioxo-21-(2,2,2-trifluoroethyl)-15-oxa-4-thia-9,21,27,28-tetrazapentacyclo[17.5.2.1^2,5.1^9,13.0^22,26]octacosa-1(25),2,5(28),19,22(26),23-hexaen-7-yl]-3-methyl-butanamide], the half-inhibitory concentration (IC50) on KRAS G12C-BRAF complex [1] was 0.106 µM; in experiment [4] it was 0.17 µM; in experiment [5], 0.078 µM; in experiment [6], 0.033 µM.

`CCn1c(-c2cc(N3CCN(C)CC3)cnc2[C@H](C)OC)c2c3cc(c(F)cc31)-c1csc(n1)C[C@H](NC(=O)[C@H](C(C)C)N1CC[C@]3(CCN(C(=O)[C@H](F)Cl)C3)C1=O)C(=O)N1CCC[C@H](N1)C(=O)OCC(C)(C)C2` (atropisomer, axis not shown; (M)) [Example 31, (2S)-2-[(5S)-7-[(2R)-2-chloro-2-fluoro-acetyl]-1-oxo-2,7-diazaspiro[4.4]nonan-2-yl]-N-[(7S,13S)-21-ethyl-24-fluoro-(20M)-20-[2-[(1S)-1-methoxyethyl]-5-(4-methylpiperazin-1-yl)-3-pyridyl]-17,17-dimethyl-8,14-dioxo-15-oxa-4-thia-9,21,27,28-tetrazapentacyclo[17.5.2.1^2,5.1^9,13.0^22,26]octacosa-1(25),2,5(28),19,22(26),23-hexaen-7-yl]-3-methyl-butanamide]: the IC50 is 0.024 µM in experiment [4]; over 10 µM in experiment [7]; 0.044 µM with SW620 (ATCC-CCL-227); 0.237 µM in experiment [2]; 0.012 µM in experiment [5]; 0.044 µM against KRAS G12C-BRAF complex [8]. The half-maximal inhibitory concentration (IC50) was 1.98 µM in experiment [9], under 0.001 µM in experiment [3] and 0.005 µM in [6].
